Test results taken from patent US20240415800A1, “DOPA AND CAFFEIC ACID ANALOGS AS NOVEL GCPII INHIBITORS” (The Johns Hopkins University, priority 2021, published 2024).
“And” between values parts separate entries of the source, which are not always exact repeats. Equal values may be shown once. “Also recorded” adds a separate entry of the source. Read-outs that look alike come from different tables or passages of the source. Values belong to the compound of their own block, whether it stands above or below them.

Assays:
[1] = target: GCPII activity in the brain (Mus musculus (Mouse), UniProt O35409); assay: GCPII target engagement: GCPII activity in brain after dosing; type: in vivo, CD1 mouse
GCPII activity in the brain, sequence (O35409 whole entry): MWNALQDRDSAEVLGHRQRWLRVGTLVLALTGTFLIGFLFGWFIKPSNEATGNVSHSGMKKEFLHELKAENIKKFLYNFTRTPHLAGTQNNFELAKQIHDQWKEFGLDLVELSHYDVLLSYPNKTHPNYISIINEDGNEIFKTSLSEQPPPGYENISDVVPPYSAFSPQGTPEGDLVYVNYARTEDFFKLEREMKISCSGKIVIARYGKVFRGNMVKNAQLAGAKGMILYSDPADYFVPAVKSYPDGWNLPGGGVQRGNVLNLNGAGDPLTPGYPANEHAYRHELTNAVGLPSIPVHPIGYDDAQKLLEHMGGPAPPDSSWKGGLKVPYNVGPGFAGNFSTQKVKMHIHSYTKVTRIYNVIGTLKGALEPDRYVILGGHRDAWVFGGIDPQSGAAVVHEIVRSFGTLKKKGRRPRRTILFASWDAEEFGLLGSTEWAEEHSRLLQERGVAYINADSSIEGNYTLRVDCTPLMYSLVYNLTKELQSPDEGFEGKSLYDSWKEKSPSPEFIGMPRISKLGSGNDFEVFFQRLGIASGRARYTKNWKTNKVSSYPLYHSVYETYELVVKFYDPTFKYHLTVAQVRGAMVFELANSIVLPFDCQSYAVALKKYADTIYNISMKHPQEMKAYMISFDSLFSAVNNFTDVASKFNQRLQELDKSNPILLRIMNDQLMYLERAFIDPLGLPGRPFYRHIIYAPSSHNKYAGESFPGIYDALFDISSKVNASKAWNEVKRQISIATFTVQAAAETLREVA

[2] = target: T1, Recombinant human GCPII enzyme (Homo sapiens (Human), UniProt Q04609); settings: NAAG saturation, D-DOPA 0-400 nM
T1 sequence (Q04609 whole entry): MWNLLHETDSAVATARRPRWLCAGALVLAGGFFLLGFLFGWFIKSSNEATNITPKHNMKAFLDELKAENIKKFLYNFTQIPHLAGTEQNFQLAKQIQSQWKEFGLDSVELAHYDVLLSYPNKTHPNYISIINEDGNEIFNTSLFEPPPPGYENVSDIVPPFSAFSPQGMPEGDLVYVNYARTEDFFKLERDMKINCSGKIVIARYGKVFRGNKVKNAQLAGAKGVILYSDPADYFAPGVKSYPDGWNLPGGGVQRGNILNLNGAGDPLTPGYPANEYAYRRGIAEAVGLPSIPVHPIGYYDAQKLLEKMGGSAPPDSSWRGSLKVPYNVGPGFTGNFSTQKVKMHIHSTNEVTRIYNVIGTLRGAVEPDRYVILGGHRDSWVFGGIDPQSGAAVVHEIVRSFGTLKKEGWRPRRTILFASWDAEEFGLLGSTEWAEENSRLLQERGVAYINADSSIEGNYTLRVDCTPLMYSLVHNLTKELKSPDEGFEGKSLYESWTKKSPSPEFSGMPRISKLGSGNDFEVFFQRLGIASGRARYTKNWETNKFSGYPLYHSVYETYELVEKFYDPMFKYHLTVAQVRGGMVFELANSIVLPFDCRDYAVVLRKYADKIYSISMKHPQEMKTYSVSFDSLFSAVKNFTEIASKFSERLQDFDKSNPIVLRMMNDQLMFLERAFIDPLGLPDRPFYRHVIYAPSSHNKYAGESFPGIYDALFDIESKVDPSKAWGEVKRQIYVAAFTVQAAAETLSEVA

[3] = target: T1, Recombinant human GCPII enzyme; assay: GCPII activity assay (IC50, radiolabelled NAAG hydrolysis); type: biochemical; settings: for GCPII inhibitory potency (in words): SAR of L-DOPA analogs
[4] = Pharmacokinetics of D-DOPA in mouse plasma and brain (IV, PO, IN; Example 1); type: in vivo, CD1 mice; settings: for Kp: brain/plasma, read-out: AUCBrain/Plasma (brain penetration index)
[5] = Mouse two-point oral pharmacokinetic screening; parameters: species or system CD-1 mice; settings: in vivo, 50 mg/kg
Protocol: Male CD-1 mice between 25-30 g were obtained from Harlan and maintained on a 12 h light-dark cycle with ad libitum access to food and water. […] All of the formulations were freshly prepared prior to the dosing. […] For the collection of plasma and brain tissue, animals were euthanized with CO2, and blood samples were collected in heparinized microtubes by cardiac puncture. Brains were dissected and immediately flash frozen (-80° C.). […] Van […] et al., 2020; Wang et al., 2015. While D-/L-DOPA required derivatization with acetic anhydride, caffeic acid was analyzed using a single step protein precipitation method. […] Plasma and brain tissue samples were processed by matching the dilutions of calibration standards of the respective tissue. […] The solutions were vortexed for 15 secs and then allowed to sit at room temperature for 45 mins. These mixtures were vortexed again for 10 sec and centrifuged at 10,000 g for 10 mins to collect the supernatant. A 50 μL aliquot of the supernatant was transferred to 250 μL polypropylene autosampler vials sealed with Teflon caps. 2 μL of the sample was injected into the LC/MS/MS system for analysis. […] Then, 2 μL of the sample was analyzed using LC/MS/MS system as mentioned above. Plasma concentrations (nmol/mL) and brain tissue concentrations (nmol/g) were determined and plots of mean plasma or brain concentrations versus time were constructed.

[6] = target: T1, Recombinant human GCPII enzyme; assay: biochemical
[7] = In vitro metabolic stability in mouse plasma and brain homogenate; type: in vitro ADME; settings: 10 μM, 1 h
Protocol: Zimmermann et al., 2018. For the brain homogenates, washed tissues were diluted 10-fold in 0.1 M potassium phosphate buffer and homogenized using a probe sonicator. Crude homogenate and plasma were aliquoted to 1 mL and spiked with a final assay concentration of 10 μM of the respective catechol followed by incubation in an orbital shaker at 37° C. for 1 h (in triplicate). An aliquot from each incubated homogenate was quenched with three volumes of acetonitrile containing the internal standard (IS; losartan: […]) at predetermined time points (0, 30, 60 min). Samples were vortex-mixed for 30 secs and centrifuged at 10,000×g for 10 min at 4° C.
Disappearance of respective catechol was monitored on a Dionex Ultimate 3000 ultra-high-performance LC system coupled with Q Exactive Focus orbitrap mass spectrometer (Thermo Fisher Scientific Inc., Waltham MA). The separation of analytes was achieved using the Agilent Eclipse Plus column (100×2.1 mm i.d.; maintained at 35° C.) packed with a 1.8 μm C18 stationary phase. The mobile phase consisted of 0.1% formic acid in water and 0.1% formic acid in acetonitrile. Pumps were operated at a flow rate of 0.4 mL/min for 9 min using gradient elution. […] Quantification of the compounds was performed in the full-scan mode (from m/z 50 to 1600) by comparing t=0 samples with t=30- and 60-min samples.

[8] = Time-dependent PK of D-DOPA with or without sodium benzoate (Example 2); type: in vivo, CD-1 mice
Protocol: All of the formulations were freshly prepared prior to the dosing. […] Tissue and plasma collection were carried out as described above. […] Van […] et al., 2020; Wang et al., 2015. While D-/L-DOPA required derivatization with acetic anhydride, caffeic acid was analyzed using a single step protein precipitation method. […] Plasma and brain tissue samples were processed by matching the dilutions of calibration standards of the respective tissue. […] The solutions were vortexed for 15 secs and then allowed to sit at room temperature for 45 mins. These mixtures were vortexed again for 10 sec and centrifuged at 10,000 g for 10 mins to collect the supernatant. A 50 μL aliquot of the supernatant was transferred to 250 μL polypropylene autosampler vials sealed with Teflon caps. 2 μL of the sample was injected into the LC/MS/MS system for analysis. Chromatographic analysis was performed using Thermo Scientific Vanquish UPLC system consisting of an analytical pump and an autosampler coupled with a […] spectrometer. For all analytes, the mobile phase used for the chromatographic separation composed of 0.1% formic acid in acetonitrile and 0.1% formic acid in water delivered as a gradient while pumping a flow rate of 0.400 mL/min. […] The analyte was monitored using ThermoScientific […] triple-quadrupole mass-spectrometric detector equipped with an electrospray interface, and operated in negative ion mode. The instrument was controlled by Thermo Scientific Xcalibur (version 4.2.47) software. […] Plasma concentrations (nmol/mL) and brain tissue concentrations (nmol/g) were determined and plots of mean plasma or brain concentrations versus time were constructed.

[9] = Solubility of D-DOPA in intranasal dosing vehicle; type: physicochemical
[10] = PO 50 mg/kg + sodium benzoate 400 mg/kg IP, brain
[11] = Table 2-1, human recombinant GCPII
[12] = Table 1, catechol scaffolds for GCPII inhibition

- GCPII activity in brain (cortex) ([1]; PO 30 mg/kg, 1 h post dose): significant inhibition of GCPII activity
- GCPII activity in brain ([1]; PO 50 mg/kg monotherapy, 30 min, vs untreated): significant inhibition of GCPII activity
- IC50 ([3]; GCPII): 200 nM
- GCPII inhibitory potency (in words) [3]: sub-micromolar potencies
- Kp ([4]; CD1, mouse, other: intranasal, 3.4 mg/kg, IN 3.4 mg/kg): 0.051
- Kp ([4]; CD1, mouse, po, 30 mg/kg, PO 30 mg/kg): < 0.05
- Cmax ([4]; CD1, mouse, inhaled or intranasal, IN 3.4 mg/kg, plasma, read-out: Cmax): 4.45 ± 0.971 µM
- AUC0-t ([4]; CD1, mouse, plasma, inhaled or intranasal, 3.4 mg/kg, IN 3.4 mg/kg, plasma, read-out: AUC0-t): 2.7 ± 0.508 µM·h
- AUC0-t ([4]; CD1, mouse, plasma, iv, 10 mg/kg, IV 10 mg/kg, plasma, read-out: AUC0-t): 30.5 ± 2.04 µM·h
- Tmax ([4]; CD1, mouse, plasma, iv, 10 mg/kg, IV 10 mg/kg, plasma, read-out: Tmax): ≤ 0.0833 h
- Tmax ([4]; CD1, mouse, plasma, iv, 10 mg/kg, IV 10 mg/kg, plasma, read-out: Tmax (h)): 0.0833 h
- bioavailability ([4]; CD1, mouse, plasma, PO 30 mg/kg vs IV 10 mg/kg, read-out: Bioavailability (% F)): 36%
- Cmax ([4]; CD1, mouse, PO 30 mg/kg, plasma, read-out: Cmax): 43.1 ± 2.58 µM
- AUC0-t ([4]; IN 3.4 mg/kg, brain): 0.139 ± 0.0268 nmol·h/g
- Cmax ([4]; IN 3.4 mg/kg, brain): 0.102 ± 0.00823 nmol/g
- Tmax ([4]; IN 3.4 mg/kg, plasma): 0.250 h
- AUC0-t ([4]; PO 30 mg/kg, brain): 1.09 ± 0.103 nmol·h/g
- Cmax ([4]; PO 30 mg/kg, brain): 0.472 ± 0.124 nmol/g
- AUC0-t ([4]; PO 30 mg/kg, plasma): 32.92 ± 0.731 µM·h
- Cmax ([4]; mouse, IV 10 mg/kg, plasma, CD1 mice, read-out: Cmax): 61.1 ± 5.09 µM
- plasma and brain exposure (in words) [5]: higher plasma and brain exposure
- Ki [6]: ~400 nM
- Kp ([8]; CD-1, mouse, brain/plasma, PO 50 mg/kg + sodium benzoate 400 mg/kg IP, read-out: brain penetration index): 0.03
- AUC ([8]; CD-1, mouse, plasma, iv, 10 mg/kg, IV 10 mg/kg, plasma, read-out: AUCIV): 30.5 µM·h
- AUC ([8]; CD-1, mouse, plasma, oral, PO 50 mg/kg + sodium benzoate 400 mg/kg IP, plasma, read-out: AUCPlasma): 185 µM·h
- AUC ([8]; CD-1, mouse, plasma, po, 50 mg/kg, PO 50 mg/kg + sodium benzoate 400 mg/kg IP, plasma, read-out: AUCPlasma): 185 µM·h
- AUC ([8]; CD-1, mouse, plasma, po, 50 mg/kg, PO 50 mg/kg monotherapy, plasma, read-out: AUCPO-plasma): 72.7 µM·h
- Cmax ([8]; CD-1, mouse, PO 50 mg/kg monotherapy, brain, read-out: Cmax): 1.74 µM
- time brain levels stayed >IC50 value of 0.2 μM ([8]; PO 50 mg/kg + sodium benzoate 400 mg/kg IP): over 3 h
- AUCBrain [8, 10]: 5.48 nmol·h/g
- Cmax [8, 10]: 3.2 nmol/g and 3.20 nmol/g
- Cmax ([8]; PO 50 mg/kg + sodium benzoate 400 mg/kg IP, plasma, read-out: Cmax): 151 µM
- time brain concentrations were >IC50 ([8]; PO 50 mg/kg monotherapy): up to 1 h
- AUCPO-Brain ([8]; PO 50 mg/kg monotherapy, brain): 2.42 nmol·h/g
- Cmax ([8]; PO 50 mg/kg monotherapy, brain): 1.74 nmol/g
- Tmax ([8]; PO 50 mg/kg monotherapy, brain): 30 min
- oral bioavailability (AUCPO/IV) ([8]; PO 50 mg/kg vs IV 10 mg/kg): 47.7%
- enhancement in both plasma and brain exposures ([8]; combination with sodium benzoate vs D-DOPA alone): > 200%
- solubility in vehicle [9]: poor solubility
Compound: N[C@H](Cc1ccc(O)c(O)c1)C(=O)O [D-DOPA, D-3,4-dihydroxyphenylalanine]
- GCPII activity in brain ([1]; PO 50 mg/kg + sodium benzoate 400 mg/kg IP, 30 min): significantly outperformed D-DOPA alone; also recorded: significant inhibition of GCPII activity; also recorded: significantly outperformed D-DOPA mono-therapy
- GCPII activity in brain ([1]; intranasal dosing): insufficient exposures to the brain to affect GCP II activity
- mode of inhibition [2]: noncompetitive, allosteric inhibitor of GCPII
- metabolic stability (in words) [7]: good metabolic stability; also recorded: superior in vitro stability

- IC50 ([3]; GCPII): 300 nM
- GCPII inhibitory potency (in words) [3]: sub-micromolar potencies
- IC50 [3, 12]: 100 nM
Compound: O=C(O)/C=C/c1ccc(O)c(O)c1 [Caffeic acid]

- IC50 [3, 11]: 4000 nM
- decrease in inhibitory potency ([3]; relative to L-DOPA): 6.7 fold
Compound: O=C(O)CCc1ccc(O)c(O)c1 [Compound 2-8]

- IC50 [3, 12]: 400 nM
- IC50 [3, 11]: 600 nM
Compound: N[C@@H](Cc1ccc(O)c(O)c1)C(=O)O [L-DOPA]
- GCPII inhibitory potency (in words) [3]: sub-micromolar potencies; also recorded: submicromolar inhibitor of GCPII

More lines, now with the values behind:

Compound: NC(Cc1ccc(=O)n(O)c1)C(=O)O (stereo not drawn) [Compound 2-4]
- GCPII inhibitory potency (in words) [3]: complete loss of potency
- IC50 [3, 11]: > 100000 nM

Compound: CC(=O)N[C@@H](Cc1ccc(O)c(O)c1)C(=O)O [Compound 2-6]
- GCPII inhibitory potency (in words) [3]: loss of potency
- IC50 [3, 11]: 20000 nM

Compound: N[C@@H](Cc1ccc(O)cc1)C(=O)O [Compound 2-2, Tyr]
- GCPII inhibitory potency (in words) [3]: substantial loss of potency
- IC50 [3, 11]: 100000 nM

Compound: C[C@](N)(Cc1ccc(O)c(O)c1)C(=O)O [Compound 2-5]
- GCPII inhibitory potency (in words) [3]: loss of potency
- IC50 [3, 11]: > 100000 nM

Compound: NCCc1ccc(O)c(O)c1 [Compound 2-7, Dopamine]
- GCPII inhibitory potency (in words) [3]: loss of potency
- IC50 [3, 11]: > 100000 nM

Compound: COc1ccc(C[C@H](N)C(=O)O)cc1OC [Compound 2-3]
- GCPII inhibitory potency (in words) [3]: substantial loss of potency
- IC50 [3, 11]: > 100000 nM
